{"source": "patent US5246947A", "about": "“Substituted pyridinylamino-1,2-benzisothiazoles and their use for treating depression” (Hoechst-Roussel Pharmaceuticals Incorporated, priority 1992, dated 1993)", "key": {"α2-Receptor": {"target": "T1, α2-Receptor (Rattus norvegicus, UniProt P22909)", "T1 construct": "the cortical tissue rapidly dissected; from tissue; host or cells: cortical tissue of male Wistar rats, washed membrane suspension", "T1 sequence (P22909 1-465)": "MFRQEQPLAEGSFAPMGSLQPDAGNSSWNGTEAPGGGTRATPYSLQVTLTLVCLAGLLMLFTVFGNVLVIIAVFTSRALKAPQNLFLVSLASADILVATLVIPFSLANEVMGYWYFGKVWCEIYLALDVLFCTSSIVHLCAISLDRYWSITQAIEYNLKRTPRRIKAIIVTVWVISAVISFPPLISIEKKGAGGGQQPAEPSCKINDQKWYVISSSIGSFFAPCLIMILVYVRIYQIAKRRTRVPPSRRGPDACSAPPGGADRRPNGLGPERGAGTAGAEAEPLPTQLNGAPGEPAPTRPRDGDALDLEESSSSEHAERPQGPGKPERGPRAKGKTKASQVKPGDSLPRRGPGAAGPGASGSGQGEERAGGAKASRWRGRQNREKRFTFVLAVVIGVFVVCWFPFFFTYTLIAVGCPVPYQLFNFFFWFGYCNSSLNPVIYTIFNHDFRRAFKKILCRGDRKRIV", "assay": "[^3 H]-Clonidine Binding: α2-Receptor", "set-up": "species or system rat (male Wistar)", "quoted_text": "[^3 H]-Clonidine Binding: α2 -Receptor\nThe purpose of this assay is to assess the interaction of compounds with central α2 -receptors.\na. 57.2 g Tris HCl 16.2 Tris Base-bring to 1 liter (0.5M Tris buffer, pH 7.7) b. Make a 1:10 dilution in distilled H2 O (0.05M Tris buffer, pH 7.7)\nTris buffer containing physiological ions b. Dilute 1:10 in distilled H2 O. This yields 0.05 M Tris HCl, pH 7.7; containing NaCl (120 mM), KCl (5 mM), CaCl2 (2 mM) and MgCl2 (1 mM) 3. [4-^3 H]-Clonidine hydrochloride (20-30 Ci/mmol) is obtained from New England Nuclear.\nClonidine-HCl is obtained from Boehringer Ingelheim. A stock solution of 0.1 mM clonidine is made up to determine nonspecific binding. This yields a final concentration of 1 μM in the assay (20 μl to 2 ml).\nMale Wistar rats are sacrified by decapitation and the cortical tissue rapidly dissected. The tissue is homogenized in 50 volumes of 0.05M Tris buffer, pH 7.7 (buffer 1b) with the Brinkman Polytron, then centrifuged at 40,000 g for 15 minutes. […]\nTissue homogenates are incubated for 20 minutes at 25° C. with 3 nM [^3 H]-clonidine and varying drug concentrations, then immediately filtered under reduced pressure on Whatman GF/B filters. […] Ten ml of liquiscint counting solution is added to each sample which is then counted by liquid scintillation spectroscopy. […] IC50 values are calculated using log-probit analysis."}, "TPA-induced ear edema": {"system": "TPA-induced ear edema", "assay": "TPA-Induced Ear Edema (TPAEE)", "type": "in vivo, mouse (female Swiss Webster)", "conditions": "topical, ear plug weight after about 5 hours, Table 3", "procedure": "The dermatological activity of the compounds was ascertained according to the following method.\nTPA-Induced Ear Edema (TPAEE)\nThe purpose of this assay was to determine the ability of a topically applied compound to prevent ear edema induced by topical application of TPA (phorbol 12-myristate acetate). Female Swiss Webster mice topically received TPA (10 μg/ear) on the right ear and vehicle on the left ear. […] After about 5 hours, the animals are sacrificed and a 4 mm diameter plug is taken from each ear and weighed. The difference between the right and left ear plug weights for each animal was determined. The antiinflammatory activity of the test compound is expressed as the mean percent change in ear plug weight of the treated animals compared to the mean percent change in the plug weight of the control animals. (Young, J. M. et al., J. Invest. Dermatol., 80 (1983), pp. 48-52.)"}, "[1]": {"target": "T2, Brain AChE (acetylcholinesterase) (Rattus norvegicus, UniProt P37136)", "T2 construct": "corpora striata dissected free, weighed and homogenized in 19 volumes; from tissue; host or cells: corpora striata of male Wistar rats, whole homogenate", "T2 sequence (P37136 32-614)": "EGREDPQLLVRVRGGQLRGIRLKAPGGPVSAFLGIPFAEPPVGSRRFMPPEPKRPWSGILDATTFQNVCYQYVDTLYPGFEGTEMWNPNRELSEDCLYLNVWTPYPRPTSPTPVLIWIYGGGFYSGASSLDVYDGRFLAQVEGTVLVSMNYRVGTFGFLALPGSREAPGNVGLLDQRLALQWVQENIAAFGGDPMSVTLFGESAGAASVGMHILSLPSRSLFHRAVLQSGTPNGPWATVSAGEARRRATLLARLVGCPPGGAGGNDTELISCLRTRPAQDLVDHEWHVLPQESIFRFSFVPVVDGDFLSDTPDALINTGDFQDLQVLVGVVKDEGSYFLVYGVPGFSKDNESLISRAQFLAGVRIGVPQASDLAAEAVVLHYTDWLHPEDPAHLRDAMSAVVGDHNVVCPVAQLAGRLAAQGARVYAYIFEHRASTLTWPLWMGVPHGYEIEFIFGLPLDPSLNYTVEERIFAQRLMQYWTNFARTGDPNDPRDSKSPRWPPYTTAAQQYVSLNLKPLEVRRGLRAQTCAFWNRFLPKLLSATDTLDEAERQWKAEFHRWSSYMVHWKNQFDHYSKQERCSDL", "assay": "biochemical", "set-up": "species or system rat (male Wistar)", "conditions": "rat striatum; 5 mM acetylthiocholine final; pH 7.2; Table 1; read-out: Inhibitory Concentration Brain AChE", "description": "Cholinesterases are found throughout the body, both in the brain and in serum. However, only brain acetylcholinesterase (AChE) distribution is correlated with central cholinergic innervation. […] We have determined in vitro inhibition of acetylcholinesterase activity in rat striatum according to the method described below.\nIn Vitro Inhibition of Acetylcholinesterase Activity in Rat Striatum\nThe method described below was used in this invention for assaying anticholinesterase activity. This is a modification of the method of Ellman et al., Biochem. Pharmacol. 7, 88 (1961).\n1. 0.05M Phosphate buffer, pH 7.2\n(c) add (a) to (b) until pH reaches 7.2\n4. A 2 mM stock solution of the test drug is made up in a suitable solvent and brought to volume with 0.5 mM DTNB (reagent 3). Drugs are serially diluted (1:10) such that the final concentration (in cuvette) is 10^-4 M and screened for activity. If active, IC50 values are determined from the inhibitory activity of subsequent concentrations.\nEnzyme activity is measured with the Beckman DU-50 spectrophotometer. This method can be used for IC50 determinations and for measuring kinetic constants.\nReagents are added to the blank and sample cuvettes as follows:\nThis program also calculates the rate of absorbance change for each cuvette.\nSubstrate concentration is 10 mM diluted 1:2 in assay yielding final concentration of 5 mM."}, "[2]": {"system": "serotonin (5-hydroxytryptamine, 5HT) uptake", "assay": "[^3 H]-Serotonin Uptake in Rat Whole Brain and Hypothalamic Synaptosomes", "type": "biochemical, rat (male CR Wistar)", "conditions": "[^3 H]-5HT 50 nM, 37° C., 5 min, Table 2", "procedure": "[^3 H]-Serotonin Uptake in Rat Whole Brain and Hypothalamic Synaptosomes\nThis activity is determined in an assay which measures [^3 H]-serotoninuptake in rat whole brain and hypothalamic synaptosomes.\nMale CR Wistar rats (100-125 g)\nPrepare a 1 liter batch containing the following salts.\n3. A 0.1 mM stock solution of serotonin creatinine SO4 is made up in 0.01N HCl. This is used to dilute the specific activity of the radiolabeled 5HT.\n4. 5-[1,2-^3 H(N)]-Hydroxytryptamine creatinine sulfate (serotonin), specific activity 20-30 Ci/mmol, is used.\nThe final desired concentration of [^3 H]-5HT in the assay is 50 nM. The dilution factor is 0.8. The KHBB is made up to contain 62.5 nM of [^3 H]-5HT.\n5. For most assays, a 1 mM stock solution of the test compound is made up in a suitable solvent and serially diluted such that the final concentration in the assay ranges from 2×10^-8 to 2×10^-5 M. Seven concentrations are used for each assay.\nMale Wistar rats are decapitated and the brain rapidly removed.\nTubes are incubated at 37° C. under a 95% O2 /5% CO2 atmosphere for 5 minutes. For each assay, 3 tubes are incubated with 20 μl of vehicle at 0° C. in an ice bath. After incubation all tubes are immediately centrifuged at 4000 g for 10 minutes. […] The tubes are vigorously vortexted, decanted into scintillation vials, and counted in 10 ml of Liquiscint scintillation counting cocktail. […]"}, "[3]": {"system": "norepinephrine (NE) uptake", "assay": "[^3 H]-Norepinephrine Uptake in Rat Whole Brain Synaptosomes", "type": "biochemical, rat (male CR Wistar)", "conditions": "[^3 H]-NE 50 nM, 37° C., 5 min, Table 2"}}, "note": "Counter-ions that a name gives are not always drawn. Like-named read-outs stand apart in the source and are kept apart here."}
{"smiles": "Cn1ccc2cc(Nc3ccncc3)ccc21", "note": "[1-Methyl-5-(4-pyridinylamino)-1H-indole]", "values": [{"measurement": "IC50", "setting": "α2-Receptor", "value": 12, "unit": "nM"}, {"measurement": "Edema Reduction", "setting": "TPA-induced ear edema; 10 μg/ear", "value": -67, "unit": "%"}]}
{"smiles": "CCCN(c1ccncc1)c1ccc2c(ccn2C)c1", "note": "[1-Methyl-5-(propyl-4-pyridinylamino)-1H-indole maleate]", "values": [{"measurement": "IC50", "setting": "[1]", "value": 31.9, "unit": "µM"}, {"measurement": "IC50", "setting": "[2]", "value": 760, "unit": "nM"}, {"measurement": "IC50", "setting": "[3]", "value": 34, "unit": "nM"}, {"measurement": "IC50", "setting": "α2-Receptor; rat cortical tissue, 3 nM [^3 H]-clonidine, 25° C., 20 min, Table 2, read-out: [^3 H]-Clonidine Binding IC50", "value": 330, "unit": "nM"}]}
{"smiles": "CN(C)CCC=C1c2ccccc2CCc2ccccc21", "note": "[Amitriptyline]", "values": [{"measurement": "IC50", "setting": "[3]", "value": 7700, "unit": "nM"}]}
{"smiles": "COc1ccc2c(c1)c(CC(=O)O)c(C)n2C(=O)c1ccc(Cl)cc1", "note": "[Indomethacin, reference compound]", "values": [{"measurement": "Edema Reduction", "setting": "TPA-induced ear edema; at 1 mg/ear", "value": -86, "unit": "%"}]}
{"smiles": "CNCCC=C1c2ccccc2CCc2ccccc21", "note": "[Notriptyline]", "values": [{"measurement": "IC50", "setting": "[3]", "value": 4000, "unit": "nM"}]}
